Tests used:
[1] = biological target: T1, human FAAH (Homo sapiens, UniProt O00519); design: purchased Cayman Chemical; method as in PMID 33045662; settings: reference benzoylpiperidines; read-out: IC50 hFAAH; cited from earlier work
T1 sequence (O00519 1-579): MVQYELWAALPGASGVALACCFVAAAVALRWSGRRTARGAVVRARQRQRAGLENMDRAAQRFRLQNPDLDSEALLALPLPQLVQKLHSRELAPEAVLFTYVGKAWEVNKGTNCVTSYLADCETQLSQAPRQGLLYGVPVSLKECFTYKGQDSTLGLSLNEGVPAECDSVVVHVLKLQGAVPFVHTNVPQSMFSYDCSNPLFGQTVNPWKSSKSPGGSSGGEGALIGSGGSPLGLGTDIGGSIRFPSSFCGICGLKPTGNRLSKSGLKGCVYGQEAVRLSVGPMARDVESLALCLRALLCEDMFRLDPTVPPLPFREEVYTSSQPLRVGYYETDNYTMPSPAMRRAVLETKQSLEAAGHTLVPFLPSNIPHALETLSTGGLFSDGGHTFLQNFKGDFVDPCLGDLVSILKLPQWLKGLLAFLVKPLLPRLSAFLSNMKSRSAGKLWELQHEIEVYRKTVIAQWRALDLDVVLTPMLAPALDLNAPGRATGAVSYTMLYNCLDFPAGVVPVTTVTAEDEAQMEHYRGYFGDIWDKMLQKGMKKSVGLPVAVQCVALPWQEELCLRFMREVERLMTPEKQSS

[2] = biological target: T2, human MAGL (Homo sapiens, UniProt Q99685); design: purchased Cayman Chemical; method as in PMID 33045662; settings: reference benzoylpiperidines; read-out: IC50 hMAGL; cited from earlier work
T2 sequence (Q99685 1-303): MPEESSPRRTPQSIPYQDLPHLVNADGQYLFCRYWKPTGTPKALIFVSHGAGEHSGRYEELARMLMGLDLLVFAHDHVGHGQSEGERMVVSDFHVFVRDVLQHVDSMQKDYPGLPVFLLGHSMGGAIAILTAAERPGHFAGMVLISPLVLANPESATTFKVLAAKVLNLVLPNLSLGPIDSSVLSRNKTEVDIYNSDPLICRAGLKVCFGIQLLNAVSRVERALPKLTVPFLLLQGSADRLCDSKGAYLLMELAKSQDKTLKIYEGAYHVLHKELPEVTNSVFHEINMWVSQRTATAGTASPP

[3] = tested on: PDAC3 primary cell culture; assay: Growth inhibition, SRB assay, PDAC3; type: cell-based, human; settings: PDAC3, SRB
[4] = tested on: active caspase-3 in PDAC3 cells; assay: Active caspase-3 immunoassay, PDAC3; type: cell-based, human; settings: PDAC3, compared to untreated cells
[5] = tested on: PDAC3 cells; assay: Wound-healing/migration assay, PDAC3; type: cell-based, human; settings: PDAC3, 20 h, drug at 5× IC50; control 59 ± 8%
[6] = biological target: T2, human MAGL
[7] = biological target: MAGL (Mus musculus, UniProt O35678)
[8] = tested on: PDAC2 cells; settings: PDAC2, single agent
[9] = tested on: active caspase-3 in PDAC2 cells; assay: Active caspase-3 immunoassay, PDAC2; type: cell-based, human; settings: untreated 0.35

MAGL, sequence (O35678 whole entry): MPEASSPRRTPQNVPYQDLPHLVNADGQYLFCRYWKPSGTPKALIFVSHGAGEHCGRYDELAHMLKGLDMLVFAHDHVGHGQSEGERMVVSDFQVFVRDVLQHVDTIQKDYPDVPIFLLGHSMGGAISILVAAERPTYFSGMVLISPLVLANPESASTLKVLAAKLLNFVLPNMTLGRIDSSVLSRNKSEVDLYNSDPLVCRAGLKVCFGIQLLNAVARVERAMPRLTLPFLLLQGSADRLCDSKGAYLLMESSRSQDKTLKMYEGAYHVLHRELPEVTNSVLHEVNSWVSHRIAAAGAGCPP

SMILES | IC50 [1] [nM] | IC50 [2] [nM] | PDAC3 cell growth inhibitory effect (cell growth curves) [3] | levels of active caspase-3 [4] | scratch area closed [5] [%] | mechanism of inhibition (pre-incubation and dilution assays) [6] | TAMRA-FP labelling of MAGL bands (ABPP) [7] | apoptosis fold induction/change [8] [fold] | levels of active caspase-3 [9] [ng/mL]
O=C(c1ccc(Sc2ccccc2)cc1)C1CCN(C(=O)c2cc(O)ccc2F)CC1 [Compound 5b] | > 10000 | 30.5 ± 1.8 | – | – | – | – | – | – | –
O=C(Oc1ccc([N+](=O)[O-])cc1)N1CCC(C(O)(c2ccc3c(c2)OCO3)c2ccc3c(c2)OCO3)CC1 [JZL-184] | – | – | effective in reducing PDAC3 proliferation | similarly effective in stimulating caspase-3 | 43 ± 8 | irreversible mechanism of action | can fully compete with the probe | – | –
Nc1ccn([C@@H]2O[C@H](CO)[C@@H](O)C2(F)F)c(=O)n1 [gemcitabine] | – | – | – | significantly higher levels of active caspase-3 | – | – | – | ~5 | 0.88
